Key:
RCC4/VHL cells = experiment: XTT assay, RCC4/VHL versus RCC4 cells (selectivity ratio); assay type: cell-based
Summary of the method: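 RCC4 cells with or without VHL (5000/well) exposed to serially diluted compounds for four days. Viability read as XTT metabolism (0.3 mg/ml XTT plus PMS, 1-2 h, 37 °C) at 450 nm. Ratio is IC50 in RCC4/VHL over IC50 in RCC4.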

SN12C-VHL shRNA tumors = experiment: Tumor growth of SN12C-VHL shRNA cells in scid mice; assay type: in vivo; conditions: VHL-deficient tumors, daily intraperitoneal treatment, FIG. 1E
Method: (§1) In vivo studies. 2−3×10^6 SN12C and SN12C-VHL shRNA cells were injected in male scid mice 4-6 weeks old. When tumor volume reached 150 mm^3, mice were randomized into vehicle control group or STF-62247 treatment group. Mice were treated every day with […] of STF-62247 intraperitoneally. Tumor growth was measured every 2-3 days after the drug treatment was started.
(§2) A. RCC4 and RCC4/VHL cells were labeled with EYFP and the effect of STF-62247 was monitored by fluorescence in each cell type separately. Cells are pseudocolored. B. Clonogenic assay in RCC4, RCC4/VHL, SN12C, SN12C-VHL shRNA cells in the presence of STF-62247 (0-30 μM). Each point of the cell survival is calculated by the average of three different experiments in triplicate as the percent of treated on untreated plate. The error bars represented the standard error of the mean (SEM). C. Upper Panel, clonogenic assay in RCC4 infected with HIF-1α or HIF-2α shRNA by retroviral infection in presence of drug in same conditions described above. Bottom panel, HIF-1α or HIF-2α protein expression evaluated by western blot in RCC4 cells with HIF-1α or HIF-2α shRNA. Tubulin is used as loading control. […] Tumor volume was measured every 2-3 days and data are represented in fold. Five tumors in each condition were analyzed where * p<0.05, **p<0.01 and ***p<0.005.

RCC4 and RCC4/VHL cells [1] = experiment: DNA damage: comet assay and p53 immunoblot; assay type: cell-based
Method: (§3) B. XTT assay in RCC4 and RCC4/VHL in presence of STF-62247 (0-40 μM). Each point of the cell survival is calculated by the average of three different experiments in duplicate as the percent of treated on untreated plate. The error bars are represented as the standard error of the mean (SEM) C. qRT-PCR for Glutl, VEGF, PDF and PGK in RCC4 cells with or without HIF-1a, HIF-2a shRNA and in RCC4/VHL. D. Hoescht staining in RCC4 and RCC4/VHL cells with 1.25 μM of STF-62247 for 2 days. Camptothecin was used as positive control E. FACS analysis for apoptosis after an annexin V-FITC staining in presence or absence of propidium iodine (PI) in cells after a treatment in same conditions than in C. F. Immunoblot for active caspase-3 in RCC4 and RCC4/VHL following treatment with 1.25 μM of STF-62247 for 24 hours. Staurosporine was used as positive control (0.2 μM for 24 hours). G,H. Immunostaining of caspase-3 and Ki67 respectively in SN12C and SN12C+shVHL tumor samples untreated or treated with 30 μM of STF-62247.1. Immunoblot for p53 and SerlS phospho-p53 in RCC4 and RCC4/VHL cells after a treatment with 1.25 μM of STF-62247 or doxorubicin for 24 hours.

RCC4 and RCC4/VHL cells [2] = experiment: Apoptosis by Hoechst, Annexin V staining and caspase-3; assay type: cell-based; conditions: in vitro, VHL-deficient cells, 1.25 μM; confirmed by caspase-3 in tumor sections
Method: as §3

SN12C tumors = experiment: Tumor growth of SN12C cells (wild-type VHL) in scid mice; assay type: in vivo; conditions: daily intraperitoneal treatment, FIG. 1E
Method: as §1, §2

RCC4 cells = experiment: XTT assay in VHL-deficient RCC4 cells; assay type: cell-based
Summary of the method: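 RCC4 cells with and without VHL seeded at 5000/well, then exposed next day to serially diluted compound (DMSO vehicle) for four days. Viability read by XTT (0.3 mg/ml) with PMS, 1-2 h at 37° C, absorbance at 450 nm.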

Q: With Cc1cccc(Nc2nc(-c3ccncc3)cs2)c1 [Compound 5, N-(3-Methylphenyl)-4-(4-pyridinyl)-1,3-thiazol-2-amine] as the compound, how does the Ratio (RCC4/VHL cells; Table 1, selectivity ratio, IC50 in RCC4/VHL cells/IC50 in RCC4 cells) read?
A: Its Ratio is 19.

Q: What about the “IC50 ratio (wild-type VHL/VHL-deficient cells)” value (RCC4/VHL cells; structure-activity text on Tables 1 and 2) of the same compound?
A: Its value is “high IC50 ratio”.

Q: And the tumor growth (SN12C-VHL shRNA tumors)?
A: The tumor growth was “significantly reduced tumor growth in VHL-deficient cells”.

Q: What about the “phosphorylation of p53 on serine 15 and total p53 levels” value (RCC4 and RCC4/VHL cells [1]; 1.25 μM, 24 hours, FIG. 7I) of the same compound?
A: Its value is “unaffected”.

Q: What about the “DNA damage by comet assay” value (RCC4 and RCC4/VHL cells [1]; data not shown) of the same compound?
A: The value was “did not induce DNA damage”.

Q: What about the induction of apoptosis (RCC4 and RCC4/VHL cells [2]) of the same compound?
A: The induction of apoptosis was “did not induce apoptosis”.

Q: And the tumor growth (SN12C tumors)?
A: The tumor growth was “did not have any effect on the growth of SN12C tumor cells that have wild-type VHL”.

Q: And the IC50 (RCC4 cells; Homo sapiens, 96 h, Table 1, XTT assay, VHL-deficient RCC4 cells, four days)?
A: The IC50 was 2100 nM.

Q: What about the “viability in a short term assay” value (RCC4 cells; XTT, 0-40 μM, FIG. 7B) of the same compound?
A: Its value is “decreases the viability of VHL-deficient cells in a short term assay”.

From patent publication US20110105436A1, “HETEROARYL COMPOUNDS, COMPOSITIONS, AND METHODS OF USE IN CANCER TREATMENT” (AUCKLAND UNISERVICES LIMITED, priority 2008, published 2011)
